Source: patent publication US6472418B1, “Non-peptide NK1 receptors antagonists” (Warner-Lambert Company, priority 1998, dated 2002)
Like-named read-outs stand apart in the source and are kept apart here.

How the values were obtained:
[1] = target: T1, Human NK1 Receptor (Homo sapiens, UniProt P25103); assay: In Vitro Human NK1 Receptor Binding Assay ([125I]Bolton-Hunter substance P displacement, IM9 cells)
T1 construct: endogenous in cells; host or cells: Human lymphoma IM9 cells (whole cells)
Summary of the method: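 Test compounds competed with 0.05-0.1 nM [125I]Bolton-Hunter substance P for binding to intact IM9 cells over 50 min at 21° C, pH 7.4 buffer with MnCl2 and peptidase inhibitors. […] [Sar9, Met(O2)11] substance P gave non-specific binding. Bound counts were measured after filtration and fitted iteratively.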

[2] = Human lymphoma IM9 cells, [125I]Bolton-Hunter substance P (0.05-0.1 nM), 50 min at 21° C., Table 1, read-out: NK1 binding IC50
[3] = human NK1 receptor, IM9 cells, [125I]Bolton-Hunter substance P, read-out: IC50 (nM) hNK1
[4] = Table 4, [125I]Bolton-Hunter substance P displacement, human IM9 cells, read-out: IC50 (nM) hNK1
[5] = Human lymphoma IM9 cells, [125I]Bolton-Hunter substance P, Table 3, array-synthesis products, read-out: IC50 (nM) hNK1

T1 sequence (P25103 whole entry): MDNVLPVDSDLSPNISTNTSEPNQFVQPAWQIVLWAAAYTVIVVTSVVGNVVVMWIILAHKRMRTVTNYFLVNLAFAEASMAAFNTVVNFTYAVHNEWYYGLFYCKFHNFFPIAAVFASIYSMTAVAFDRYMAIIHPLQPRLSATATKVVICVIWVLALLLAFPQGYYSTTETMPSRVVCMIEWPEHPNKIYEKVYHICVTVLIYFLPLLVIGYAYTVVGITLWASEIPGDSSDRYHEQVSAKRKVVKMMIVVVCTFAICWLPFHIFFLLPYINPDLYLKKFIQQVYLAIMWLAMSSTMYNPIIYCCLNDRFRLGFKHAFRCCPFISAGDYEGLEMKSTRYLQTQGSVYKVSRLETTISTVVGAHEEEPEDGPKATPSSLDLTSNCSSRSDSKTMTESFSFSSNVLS

Compound | melting point | IC50 [1, 2] | other results
C[C@H](NC(=O)[C@@H](Cc1c[nH]c2ccccc12)NCCc1cc2ccccc2o1)c1ccccc1 (relative stereo) [Example 7, 2-(2-Benzofuran-2-yl-ethylamino)-3-(1H-indol-3-yl)-N-(1-phenyl-ethyl)-propionamide, [R-(R*,S*)]] | 105 to 107 °C | 3.3 nM | 
C[C@H](NC(=O)[C@@H](Cc1c[nH]c2ccccc12)NCc1cnc2ccccc2c1)c1ccccc1 (relative stereo) [Example 11, 3-(1H-Indol-3-yl)-N-(1-phenyl-ethyl)-2-[(quinolin-3-ylmethyl)-amino]-propionamide, [R-(R*,S*)]] | 161 to 163 °C | 46 nM | 
C[C@H](NC(=O)[C@@](C)(Cc1c[nH]c2ccccc12)NCc1cc2ccccc2o1)c1ccncc1 (relative stereo) [Example 3, 2-[(Benzofuran-2-ylmethyl)-amino]-3-(1H-indol-3-yl)-2-methyl-N-(1-pyridin-4-yl-ethyl)-propionamide, [R(R*,S*)]] | 66 to 69 °C | 6 nM | 
C[C@](Cc1c[nH]c2ccccc12)(NCc1cc2ccccc2o1)C(=O)NCc1cccc(O)c1 [Example 5, 2-[(Benzofuran-2-ylmethyl)-amino]-N-(3-hydroxy-benzyl)-3-(1H-indol-3-yl)-2-methyl-propionamide, R] | 60 to 69 °C | 295 nM | 
CN(C)C[C@H](NC(=O)[C@@](C)(Cc1c[nH]c2ccccc12)NCc1cc2ccccc2o1)c1ccccc1 [Example 4, 2-[(Benzofuran-2-ylmethyl)-amino]-N-(2-dimethylamino-1-phenyl-ethyl)-3-(1H-indol-3-yl)-2-methyl-propionamide, (R,R)] | 130 to 134 °C | 1210 nM | 
CC(NC(=O)[C@@](C)(Cc1c[nH]c2ccccc12)NCc1cc2ccccc2o1)c1ccn(C)c1 (stereo in doubt) [Example 2, 2-[(Benzofuran-2-ylmethyl)-amino]-3-(1H-indol-3-yl)-2-methyl-N-[1-(1-methyl-1H-pyrrol-3-yl)-ethyl]-propionamide, [R-(R*,R*)] and [R-(R*,S*)]] | 53 to 57 °C | 23 nM | 
CC(C)(NC(=O)[C@@](C)(Cc1c[nH]c2ccccc12)NCc1cc2ccccc2o1)c1ccccc1 [Example 1, 2-[(Benzofuran-2-ylmethyl)-amino]-3-(1H-indol-3-yl)-2-methyl-N-(1-methyl-1-phenyl-ethyl)-propionamide, (R)] | 57 to 62 °C | 591 nM | 
C[C@H](NC(=O)[C@@H](Cc1c[nH]c2ccccc12)NCc1nc2ccccc2[nH]1)c1ccccc1 (relative stereo) [Example 9, 2-[(1H-Benzoimidazol-2-ylmethyl)-amino]-3-(1H-indol-3-yl)-N-(1-phenyl-ethyl)-propionamide, [R-(R*,S*)]] | 148 to 152.5 °C | 112 nM | 
C[C@H](NC(=O)[C@@](C)(Cc1c[nH]c2ccccc12)NCc1cc2ccccc2o1)c1ccccc1 (relative stereo) [Example 18, 2-[(Benzofuran-2-ylmethyl)-amino]-3-(1H-indol-3-yl)-2-methyl-N-(1-phenyl-ethyl)-propionamide, [R-(R*,S*)]] | 118 to 121 °C | 4.4 nM | 
C[C@H](NC(=O)[C@@](C)(Cc1c[nH]c2ccccc12)NC(=O)NCc1cc2ccccc2o1)c1ccccc1 (relative stereo) [Example 22, 2-(3-Benzofuran-2-ylmethyl-ureido)-3-(1H-indol-3-yl)-2-methyl-N-(1-phenyl-ethyl)-propionamide, [R-(R*,S*)]] | 176 to 178 °C | 2.9 nM | 
C[C@H](NC(=O)[C@@H](Cc1c[nH]c2ccccc12)NCc1cccc([N+](=O)[O-])c1)c1ccccc1 (relative stereo) [Example 15, 3-(1H-Indol-3-yl)-2-(3-nitro-benzylamino)-N-(1-phenyl-ethyl)-propionamide, [R-(R*,S*)]] |  | > 10000 nM | 
Cc1cccc(CNC(=O)C(C)(Cc2c[nH]c3ccccc23)NCc2cc3ccccc3o2)c1C (centres unmarked) [compound 54, 2-[(Benzofuran-2-ylmethyl)-amino]-N-(2,3-dimethyl-benzyl)-3-(1H-indol-3-yl)-2-methyl-propionamide] |  |  | IC50 [1, 3]: 834 nM
CC(Cc1c[nH]c2ccccc12)(NCc1cc2ccccc2o1)C(=O)NCc1ccccc1Cl (centres unmarked) [compound 189, 2-((Benzofuran-2-ylmethyl)-amino]-N-(2-chloro-benzyl)-3-(1H-indol-3-yl)-2-methyl-propionamide] |  |  | IC50 [1, 3]: 1130 nM
CC(Cc1c[nH]c2ccccc12)(NCc1cc2ccccc2o1)C(=O)NCc1ccc(Cl)cc1 (centres unmarked) [compound 64, 2-[(Benzofuran-2-ylmethyl)-amino]-N-(4-chloro-benzyl)-3-(1H-indol-3-yl)-2-methyl-propionamide] |  |  | IC50 [1, 3]: 76 nM
CC(NC(=O)C(C)(Cc1c[nH]c2ccccc12)NCc1c2ccccc2cc2ccccc12)c1ccccc1 (centres unmarked) [compound 346, 2-[(Anthracen-9-ylmethyl)-amino]-3-(1H-indol-3-yl)-2-methyl-N-(1-phenyl-ethyl)-propionamide] |  |  | IC50 [1, 4]: > 10000 nM
Toluene-4-sulfonic acid 3-{[2-(1H-indol-3-yl)-1-methyl-1-(1-phenyl-ethylcarbamoyl)-ethylamino]-methyl}-phenyl ester [compound 342] |  |  | IC50 [1, 4]: 5090 nM

Compound | melting point | IC50 [1, 2] | other results
CC(NC(=O)C(C)(Cc1c[nH]c2ccccc12)NCc1ccc(C=Cc2ccccc2)o1)c1ccccc1 (centres unmarked) [compound 325, 3-(1H-Indol-3-yl)-2-methyl-N-(1-phenyl-ethyl)-2-[(5-styryl-furan-2-ylmethyl)-amino]-propionamide] |  |  | IC50 [1, 4]: 72 nM
CC(Cc1c[nH]c2ccccc12)(NCc1cc2ccccc2o1)C(=O)NCc1ccc(N)c2ccccc12 (centres unmarked) [compound 141, N-(4-Amino-naphthalen-1-ylmethyl)-2-[(benzofuran-2-ylmethyl)-amino]-3-(1H-indol-3-yl)-2-methyl-propionamide] |  |  | IC50 [1, 3]: 2340 nM
CC(C)C=CCC1=CCC(CNC(C)(Cc2c[nH]c3ccccc23)C(=O)NC(C)c2ccccc2)CC1 (centres unmarked) [compound 328, 3-(1H-Indol-3-yl)-2-methyl-2-{[4-(4-methyl-pent-2-enyl)-cyclohex-3-enylmethyl]-amino}-N-(1-phenyl-ethyl)-propionamide] |  |  | IC50 [1, 4]: > 10000 nM
CC(NC(=O)C(C)(Cc1c[nH]c2ccccc12)NCc1cc2ccccc2o1)c1ccc([N+](=O)[O-])cc1 (centres unmarked) [compound 34, 2-[(Benzofuran-2-ylmethyl)-amino]-3-(1H-indol-3-yl)-2-methyl-N-[1-(4-nitro-phenyl)-ethyl]-propionamide] |  |  | IC50 [1, 3]: 14 nM
O=C(NCCc1ccc(F)cc1)C(Cc1c[nH]c2ccccc12)NCc1cc2ccccc2o1 (centres unmarked) [Example 284, 2-[(Benzofuran-2-ylmethyl)-amino]-N-[2-(4-fluoro-phenyl)-ethyl]-3-(1H-indol-3-yl)-propionamide] |  |  | IC50 [1, 5]: 62 nM
CC1CCC(C)N1CCCCNC(=O)C(C)(Cc1c[nH]c2ccccc12)NCc1cc2ccccc2o1 (centres unmarked) [compound 94, 2-[(Benzofuran-2-ylmethyl)-amino]-N-[4-(2,5-dimethyl-pyrrolidin-1-yl)-butyl]-3-(1H-indol-3-yl)-2-methyl-propionamide] |  |  | IC50 [1, 3]: > 10000 nM
CC(Cc1c[nH]c2ccccc12)(NCc1cc2ccccc2o1)C(=O)NCc1ccncc1 (centres unmarked) [compound 25, 2-[(Benzofuran-2-ylmethyl)-amino]-3-(1H-indol-3-yl)-2-methyl-N-pyridin-4-ylmethyl-propionamide] |  |  | IC50 [1, 3]: 131 nM
C[C@H](NC(=O)[C@@H](Cc1c[nH]c2ccccc12)NCc1cccc(SC(F)(F)F)c1)c1ccccc1 (relative stereo) [Example 13, 3-(1H-Indol-3-yl)-N-(1-phenyl-ethyl)-2-(3-trifluoromethylsulfanyl-benzylamino)-propionamide, [R-(R*,S*)]] |  | 35 nM | 
CC(Cc1c[nH]c2ccccc12)(NCc1cc2ccccc2o1)C(=O)NCCc1ccc(S(N)(=O)=O)cc1 (centres unmarked) [compound 47, 2-[(Benzofuran-2-ylmethyl)-amino]-3-(1H-indol-3-yl)-2-methyl-N-[2-(4-sulfamoyl-phenyl)-ethyl]-propionamide] |  |  | IC50 [1, 3]: 7620 nM
O=C(NCc1ccc(F)c(F)c1)C(Cc1c[nH]c2ccccc12)NCc1cc2ccccc2o1 (centres unmarked) [Example 268, 2-[(Benzofuran-2-ylmethyl)-amino]-N-(3,4-difluoro-benzyl)-3-(1H-indol-3-yl)-propionamide] |  |  | IC50 [1, 5]: 10 nM
CC(NC(=O)C(C)(Cc1c[nH]c2ccccc12)NCc1c[nH]c2ccccc12)c1ccccc1 (centres unmarked) [compound 355, 3-(1H-Indol-3-yl)-2-[(1H-indol-3-ylmethyl)-amino]-2-methyl-N-(1-phenyl-ethyl)-propionamide] |  |  | IC50 [1, 4]: 1050 nM
O=C(NCc1cccc([N+](=O)[O-])c1)C(Cc1c[nH]c2ccccc12)NCc1cc2ccccc2o1 (centres unmarked) [Example 260, 2-[(Benzofuran-2-ylmethyl)-amino]-3-(1H-indol-3-yl)-N-(3-nitro-benzyl)-propionamide] |  |  | IC50 [1, 5]: 14 nM
CC(Cc1n[nH]c2ccccc12)NC(=O)C(C)(Cc1c[nH]c2ccccc12)NCc1cc2ccccc2o1 (centres unmarked) [compound 120, 2-[(Benzofuran-2-ylmethyl)-amino]-N-[2-(1H-indazol-3-yl)-1-methyl-ethyl]-3-(1H-indol-3-yl)-2-methyl-propionamide] |  |  | IC50 [1, 3]: 2650 nM
CC(NC(=O)C(Cc1c[nH]c2ccccc12)NCc1ccc(-c2ccccc2)cc1)c1ccccc1 (centres unmarked) [compound 385] |  |  | IC50 ([1]; Table 5, [125I]Bolton-Hunter substance P displacement, human IM9 cells, read-out: IC50 (nM) hNK1): 1460 nM
CC(C)(CNC(=O)C(Cc1c[nH]c2ccccc12)NCc1cc2ccccc2o1)c1ccccc1 (centres unmarked) [Example 257, 2-[(Benzofuran-2-ylmethyl)-amino]-3-(1H-indol-3-yl)-N-(2-methyl-2-phenyl-propyl)-propionamide] |  |  | IC50 [1, 5]: > 10000 nM
